Reference: patent US5770604A, “Aconitine compound and an antipyretic/analgesic/anti-inflammatory agent” (priority 1994, dated 1998)

What was measured:
[1] = cited from earlier work; for analgesic activity, in words: compared to morphine
[2] = system: carrageenin-induced paw edema; test: Antiinflammatory activity by the carrageenin-induced hind paw edema; assay type: in vivo, mice (Std:ddY, male); settings: mouse, 30 mg/kg p.o., mean ± standard error, n = 6
Description: Measurement of Antiinflammatory Activity by the Carrageenin-Induced Hind Paw Edema
Std:ddY Strain male mice (20-25 g) were fasted for one day before the experiment, and were used. After test compounds shown in Table 1 was formed to a salt with tartaric acid, this salt was dissolved in sterilized and distilled water at the rate of 30 mg/10 ml to give the test compound solution. As a control, sterilized and distilled water was used. One hour after the oral administration of test compound solutions, 25 μl of λ-carrageenin suspended in 0.9% physiological saline solution (0.5 mg/25 μl) was injected s.c. under the plantar surface of the right hind paw of a mouse and 25 μl of 0.9% physiological saline solution was injected s.c. under the plantar surface of the left hind paw of the same mouse. Three hours and five hours after carrageenin injection, the […] of the paw was measured with a dial gauge calliper. To the control group, One hour after the oral administration of sterilized and distilled water at the rate of 10 ml/kg, 25 μl of λ-carrageenin (0.5 mg/25 μl) suspended in 0.9% physiological saline solution was injected s.c. under the plantar surface of the right hind paw of a mouse and 25 μl of 0.9% physiological saline solution was injected s.c. under the plantar surface of the left hind paw of the same mouse and the later operation was done in the same manner as in the test compound dosing group mentioned above. The results were described as a swelling rate (%) obtained from the following equation.
Swelling rate (%)=(R-L)×100/L
R: the thickness of the right hind paw
L: the thickness of the left hind paw

[3] = system: pain threshold (tail-pressure); test: Analgesic activity by the tail-pressure method (s.c.); assay type: in vivo, mice (Std:ddY, male); settings: mouse, 10 mg/10 ml at 10 ml/kg s.c., 1 hour after administration, mean ± standard error
Description: (1) Measurement of Analgesic Activity by the Tail-Pressure Method
Std:ddY Strain male mice (20-25 g) were fasted for one day before the experiment, and were used. After test compounds shown in Table 1 was formed to a salt with tartaric acid, this salt was dissolved in 0.9% physiological saline solutions at the rate of 10 mg/10 ml to give the test compoun d solution . As a control, 0.9% physiological saline solution was used. A tail-pressure apparatus was used in this experiments. Before the administration of test compounds, the pain threshold was measured twice at intervals of 30 minutes and those mice indicating a pain threshold of 50 to 100 mmHg were selected and used. The pain threshold of each mouse was measured at 1 hour after test compound solution mentioned above was administered at 10 ml/kg, s.c. 0.9% Physiological saline solution as a control was administered at 10 ml/kg, s.c . The results were described as an inhibition rate (%) obtained from the following equation. Cutoff level of pressure was defined to be 230 mmHg for the prevention of the damage of mouse tail.
Inhibition rate (%)=(A-B)×100/(C-B)
A: Pain threshold (mmHg) after the administration of test compound solution
B: Pain threshold (mmHg) before the administration of test compound solution
C: Cutoff pressure (230 mmHg)

[4] = system: nociceptive response (licking); test: Analgesic activity by the hot-plate method; assay type: in vivo, mice (Std:ddY, male); settings: mouse, 52° C. plate, solution 10 mg/10 ml, mean ± standard error
Description: Measurement of Analgesic Activity by the Hot-Plate Method
Std:ddY Strain male mice (20-25 g) were fasted for one day before the experiment, and were used. After compounds shown in Table 1 were formed to the tartaric acid salts, these compounds were dissolved in 0.9% physiologocal saline solution at the rate of 10 mg/10 ml, respectively and these solution were used as test compound solution. In a control, 0.9% physiological saline solution was used. Mice were placed on a cyrindric hot plate (diameter: 22 cm, height: 11 cm) made of copper which was fixed in a water bath adjusted to 52° C. so that each animal's four paws came into contact with the plate and the time taken to show the nociceptive response (licking) as an index of pain was measured. Mice showing response latency above 25 seconds were excluded from the experiment. To prevent a burn damage of mouse tissue by heating, cutoff time of 50 seconds was defined. The results were described as an inhibition rate (%) obtained from the following equation.
Inhibition rate (%)=(A-B)×100/(50-B)
A: Response latency (seconds) after the administration of test compound solution
B: Response latency (seconds) before the administration of test compound solution

yeast-induced fever = test: Antipyretic activity on yeast-induced fever in rats; assay type: in vivo, rats (Wistar, male); settings: rat, 2 hours after administration
Description: Measurement of Antipyretic Activity on Yeast-Induced Fever in Rats
Wistar Strain male rats (150-190 g) were fasted for one day before the experiment, and were used. Compounds of number (1) and (2) in Table 1 were formed to the tartaric acid salt and these salts were dissolved in 0.9% physiological saline solution at the rate of 10 mg/10 ml and these solution were used as test compound solution. In a control, 0.9% physiological saline solution was used. After rat rectal temperature was measured, 1 ml/100 g of body weight of 7.5% yeast/0.9% physiological saline solution was injected s.c. at dorsal position. Then, rat rectal temperature was measured at 4 hour after the injection of yeast and rats showing the increase rectal temperature by 1 degree or more were selected and used. Test compound solution was administered s.c. at 5 hours after the injection of yeast. The rectal temperature was measured 2 hours after the administration of test compound solution. The results were described with the difference between the rectal temperature before and after the administration of test compound solution.

Row | Compound | analgesic/anti-inflammatory activity relative to earlier compounds, in words ([1]; JP, A, H5-17448) | Swelling rate ([2]; 3 hour) | Swelling rate ([2]; 5 hour) | Inhibition rate (tail-pressure method) [3] | Inhibition rate (hot-plate method) [4] | analgesic activity, in words [1] | activity in tail pressure methods and hot plate methods, in words [1] | Change of rectal temperature (yeast-induced fever; 1 mg/kg s.c.) | Change of rectal temperature (yeast-induced fever; 3 mg/kg s.c.) | Change of rectal temperature (yeast-induced fever; 10 mg/kg s.c.)
1 | CCN1CC2(COC)C(O)CC(OC)C34C5CC6(O)C(OC)C(O)C(O)(C5C6OC(=O)c5ccc(Cl)cc5)C(C(OC)C23)C14 (stereo not shown) [14-O-p-chlorobenzoylaconine, reference compound] | exhibits activity superior to that of compounds having a p-chlorobenzoyloxy group bonded to the position 14 carbon atom of the aconitine chemical structure | 57 ± 8% | 63 ± 9% | 10 ± 4% | 17 ± 7% | – | – | – | – | –
2 | CC(=O)Oc1ccccc1C(=O)O [aspirin] | – | – | – | – | – | weak analgesic activity compared to morphine | no remarkable activity in tail pressure methods and hot plate methods | – | – | –
3 | 15-O-acetyl-8-deoxy-14-O-p-chlorobenzoylmesaconine [(7)] | – | 43 ± 8% | 48 ± 8% | 35 ± 10% | 49 ± 11% | – | – | – | – | –
4 | CCN1CC2(COC)C(OC(C)=O)CC(OC)C34C5CC6(O)C(OC)C(OC(C)=O)C(O)(C5C6OC(=O)c5ccc(Cl)cc5)C(C(OC)C23)C14 (stereo not shown) [(4), 3,15-di-O-acetyl-14-O-p-chlorobenzoylaconine] | – | 50 ± 7% | 55 ± 9% | 29 ± 8% | 35 ± 9% | – | – | – | – | –
5 | COCC12CN(C)C3C4C(OC)C1C3(C(OC)CC2O)C1CC2(O)C(OC)C(OC(C)=O)C4(O)C1C2OC(=O)c1ccc(Cl)cc1 (stereo not shown) [(1), 15-O-acetyl-14-O-p-chlorobenzoylmesaconine] | – | 49 ± 2% | 52 ± 6% | 48 ± 12% | 52 ± 12% | – | – | 1.3 ± 0.1 °C | 0.2 ± 0.1 °C | 0.2 ± 0.2 °C
6 | COc1ccc2c(c1)c(CC(=O)O)c(C)n2C(=O)c1ccc(Cl)cc1 [indomethacin] | – | – | – | – | – | weak analgesic activity compared to morphine | no remarkable activity in tail pressure methods and hot plate methods | – | – | –
7 | CCCN1CC2(COC)C(O)CC(OC)C34C5CC6(O)C(OC)C(OC(C)=O)C(O)(C5C6OC(=O)c5ccc(Cl)cc5)C(C(OC)C23)C14 (stereo not shown) [(3), de-N-ethyl-N-propyl-15-O-acetyl-14-O-p-chlorobenzoylaconine] | – | 42 ± 10% | 54 ± 8% | 36 ± 10% | 39 ± 11% | – | – | – | – | –
8 | 15-O-acetyl-8-deoxy-14-O-p-chlorobenzoylaconine [(8)] | – | 41 ± 5% | 55 ± 8% | 26 ± 7% | 48 ± 8% | – | – | – | – | –
9 | de-N-ethyl-N-propyl-15-O-acetyl-8-deoxy-16-epi-14-O-p-chlorobenzoylaconine [(11)] | – | 50 ± 5% | 52 ± 9% | 25 ± 8% | 34 ± 9% | – | – | – | – | –
10 | 15-O-acetyl-8-deoxy-16-epi-14-O-p-chlorobenzoylmesaconine [(9)] | – | 44 ± 7% | 56 ± 7% | 31 ± 12% | 46 ± 7% | – | – | – | – | –
